Test results taken from PubChem BioAssay (NCI).
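Dose response: 5 concentrations. Exposure: 48 h. Format: 96-well plates. Endpoint: linear interpolation; highest concentration if not reached. At the TGI there is no net growth.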

Tests used:
Experiment in all cases: DTP human tumour cell line panel, 48 h
786-0 renal = tested on: 786-0 renal
A498 renal = tested on: A498 renal
A549 NSCLC = tested on: A549 NSCLC
ACHN renal = tested on: ACHN renal
BT-549 breast = tested on: BT-549 breast
CAKI-1 renal = tested on: CAKI-1 renal
CCRF-CEM leukemia = tested on: CCRF-CEM leukemia
COLO 205 colon = tested on: COLO 205 colon
DU-145 prostate = tested on: DU-145 prostate
EKVX NSCLC = tested on: EKVX NSCLC
HCC-2998 colon = tested on: HCC-2998 colon
HCT-116 colon = tested on: HCT-116 colon
HCT-15 colon = tested on: HCT-15 colon
HL-60(TB) leukemia = tested on: HL-60(TB) leukemia
HOP-62 NSCLC = tested on: HOP-62 NSCLC
HOP-92 NSCLC = tested on: HOP-92 NSCLC
HS 578T breast = tested on: HS 578T breast
HT29 colon = tested on: HT29 colon
IGROV1 ovarian = tested on: IGROV1 ovarian
K-562 leukemia = tested on: K-562 leukemia
KM12 colon = tested on: KM12 colon
LOX IMVI melanoma = tested on: LOX IMVI melanoma
M14 melanoma = tested on: M14 melanoma
MALME-3M melanoma = tested on: MALME-3M melanoma
MCF7 breast = tested on: MCF7 breast
MDA-MB-231 breast = tested on: MDA-MB-231 breast
MDA-MB-435 = tested on: MDA-MB-435
MDA-N = tested on: MDA-N
MOLT-4 leukemia = tested on: MOLT-4 leukemia
NCI-H226 lung = tested on: NCI-H226 lung
NCI-H23 lung = tested on: NCI-H23 lung
NCI-H460 lung = tested on: NCI-H460 lung
NCI-H522 lung = tested on: NCI-H522 lung
OVCAR-3 ovarian = tested on: OVCAR-3 ovarian
OVCAR-4 ovarian = tested on: OVCAR-4 ovarian
OVCAR-5 ovarian = tested on: OVCAR-5 ovarian
RPMI-8226 leukemia = tested on: RPMI-8226 leukemia
RXF 393 renal = tested on: RXF 393 renal
SF-268 CNS = tested on: SF-268 CNS
SF-295 CNS = tested on: SF-295 CNS
SF-539 CNS = tested on: SF-539 CNS
SK-MEL-2 melanoma = tested on: SK-MEL-2 melanoma
SK-MEL-28 melanoma = tested on: SK-MEL-28 melanoma
SK-MEL-5 melanoma = tested on: SK-MEL-5 melanoma
SK-OV-3 ovarian = tested on: SK-OV-3 ovarian
SN12C renal = tested on: SN12C renal
SNB-19 CNS = tested on: SNB-19 CNS
SR leukemia = tested on: SR leukemia
SW-620 colon = tested on: SW-620 colon
T-47D breast = tested on: T-47D breast
TK-10 renal = tested on: TK-10 renal
U251 CNS = tested on: U251 CNS
UACC-257 melanoma = tested on: UACC-257 melanoma
UACC-62 melanoma = tested on: UACC-62 melanoma
UO-31 renal = tested on: UO-31 renal
NCI/ADR-RES ovarian = tested on: NCI/ADR-RES ovarian
OVCAR-8 ovarian = tested on: OVCAR-8 ovarian
PC-3 prostate = tested on: PC-3 prostate
SNB-75 CNS = tested on: SNB-75 CNS

With Fc1ccc(N=NN2CCCC2)cc1 the TGI (786-0 renal) was greater than 100 µM, the TGI (A498 renal) was greater than 100 µM and the TGI (A549 NSCLC) was greater than 100 µM. The TGI (ACHN renal) was greater than 100 µM, the TGI (BT-549 breast) was greater than 100 µM and the TGI (CAKI-1 renal) was greater than 100 µM. It also gave a TGI (CCRF-CEM leukemia) greater than 100 µM, a TGI (COLO 205 colon) greater than 100 µM and a TGI (DU-145 prostate) greater than 100 µM. The TGI (EKVX NSCLC) was greater than 100 µM, the TGI (HCC-2998 colon) was greater than 100 µM and the TGI (HCT-116 colon) was greater than 100 µM. The TGI (HCT-15 colon) was greater than 100 µM, the TGI (HL-60(TB) leukemia) was greater than 100 µM and the TGI (HOP-62 NSCLC) was greater than 100 µM. For the same compound, the TGI (HOP-92 NSCLC) was greater than 100 µM, the TGI (HS 578T breast) was greater than 100 µM and the TGI (HT29 colon) was greater than 100 µM. For the same compound, the TGI (IGROV1 ovarian) was greater than 100 µM, the TGI (K-562 leukemia) was greater than 100 µM and the TGI (KM12 colon) was greater than 100 µM. For the same compound, the TGI (LOX IMVI melanoma) was greater than 100 µM, the TGI (M14 melanoma) was greater than 100 µM and the TGI (MALME-3M melanoma) was greater than 100 µM. The TGI (MCF7 breast) was greater than 100 µM, the TGI (MDA-MB-231 breast) was greater than 100 µM and the TGI (MDA-MB-435) was greater than 100 µM. The TGI (MDA-N) was greater than 100 µM, the TGI (MOLT-4 leukemia) was greater than 100 µM and the TGI (NCI-H226 lung) was greater than 100 µM. The TGI (NCI-H23 lung) was greater than 100 µM, the TGI (NCI-H460 lung) was greater than 100 µM and the TGI (NCI-H522 lung) was greater than 100 µM. For the same compound, the TGI (OVCAR-3 ovarian) was greater than 100 µM, the TGI (OVCAR-4 ovarian) was greater than 100 µM and the TGI (OVCAR-5 ovarian) was greater than 100 µM. For the same compound, the TGI (RPMI-8226 leukemia) was greater than 100 µM, the TGI (RXF 393 renal) was greater than 100 µM and the TGI (SF-268 CNS) was greater than 100 µM. For the same compound, the TGI (SF-295 CNS) was greater than 100 µM, the TGI (SF-539 CNS) was greater than 100 µM and the TGI (SK-MEL-2 melanoma) was greater than 100 µM. The TGI (SK-MEL-28 melanoma) was greater than 100 µM, the TGI (SK-MEL-5 melanoma) was greater than 100 µM and the TGI (SK-OV-3 ovarian) was greater than 100 µM. The TGI (SN12C renal) was greater than 100 µM, the TGI (SNB-19 CNS) was greater than 100 µM and the TGI (SR leukemia) was greater than 100 µM. For the same compound, the TGI (SW-620 colon) was greater than 100 µM, the TGI (T-47D breast) was greater than 100 µM and the TGI (TK-10 renal) was greater than 100 µM. For the same compound, the TGI (U251 CNS) was greater than 100 µM, the TGI (UACC-257 melanoma) was greater than 100 µM and the TGI (UACC-62 melanoma) was greater than 100 µM. For the same compound, the TGI (UO-31 renal) was greater than 100 µM.

For CCOC(=O)/C=C(\C(=O)OCC)n1ccc(N)nc1=O, the TGI (786-0 renal) was greater than 100 µM, the TGI (A549 NSCLC) was greater than 100 µM and the TGI (ACHN renal) was greater than 100 µM. For the same compound, the TGI (BT-549 breast) was greater than 100 µM, the TGI (CAKI-1 renal) was greater than 100 µM and the TGI (CCRF-CEM leukemia) was 60.5 µM. It also gave a TGI (COLO 205 colon) greater than 100 µM, a TGI (DU-145 prostate) greater than 100 µM and a TGI (EKVX NSCLC) greater than 100 µM. The TGI (HCC-2998 colon) was greater than 100 µM, the TGI (HCT-116 colon) was greater than 100 µM and the TGI (HCT-15 colon) was greater than 100 µM. It also gave a TGI (HL-60(TB) leukemia) greater than 100 µM, a TGI (HOP-62 NSCLC) greater than 100 µM and a TGI (HOP-92 NSCLC) greater than 100 µM. The TGI (HS 578T breast) was greater than 100 µM, the TGI (HT29 colon) was greater than 100 µM and the TGI (IGROV1 ovarian) was greater than 100 µM. The TGI (K-562 leukemia) was greater than 100 µM, the TGI (KM12 colon) was greater than 100 µM and the TGI (LOX IMVI melanoma) was greater than 100 µM. For the same compound, the TGI (M14 melanoma) was greater than 100 µM, the TGI (MALME-3M melanoma) was greater than 100 µM and the TGI (MCF7 breast) was greater than 100 µM. It also gave a TGI (MDA-MB-231 breast) greater than 100 µM, a TGI (MDA-MB-435) greater than 100 µM and a TGI (MDA-N) greater than 100 µM. The TGI (MOLT-4 leukemia) was greater than 100 µM, the TGI (NCI-H226 lung) was greater than 100 µM and the TGI (NCI-H23 lung) was greater than 100 µM. It also gave a TGI (NCI-H460 lung) greater than 100 µM, a TGI (NCI-H522 lung) of 40.8 µM and a TGI (NCI/ADR-RES ovarian) greater than 100 µM. The TGI (OVCAR-3 ovarian) was greater than 100 µM, the TGI (OVCAR-4 ovarian) was greater than 100 µM and the TGI (OVCAR-5 ovarian) was greater than 100 µM. It also gave a TGI (OVCAR-8 ovarian) greater than 100 µM, a TGI (PC-3 prostate) greater than 100 µM and a TGI (RPMI-8226 leukemia) greater than 100 µM. For the same compound, the TGI (SF-268 CNS) was greater than 100 µM, the TGI (SF-295 CNS) was greater than 100 µM and the TGI (SF-539 CNS) was greater than 100 µM. It also gave a TGI (SK-MEL-2 melanoma) greater than 100 µM, a TGI (SK-MEL-5 melanoma) greater than 100 µM and a TGI (SK-OV-3 ovarian) greater than 100 µM. It also gave a TGI (SN12C renal) greater than 100 µM, a TGI (SNB-19 CNS) greater than 100 µM and a TGI (SNB-75 CNS) greater than 100 µM. The TGI (SR leukemia) was greater than 100 µM, the TGI (SW-620 colon) was greater than 100 µM and the TGI (T-47D breast) was greater than 100 µM. For the same compound, the TGI (TK-10 renal) was greater than 100 µM, the TGI (U251 CNS) was greater than 100 µM and the TGI (UACC-257 melanoma) was greater than 100 µM. The TGI (UACC-62 melanoma) was greater than 100 µM and the TGI (UO-31 renal) was greater than 100 µM.
